Test results published in US7612107B2, “Treatment and inhibition of disease conditions using flexible heteroarotinoids” (The Board of Regents of the University of Oklahoma, priority 2005, dated 2009).

Experiments:
[1] = system: NF-κB; assay: NF-κB luciferase reporter assay in A2780 cultures; type: cell-based; details: 10 μM SHetA2
Experimental: FIG. 15. SHetA2 Inhibition of NF-κB. A2780 cultures were transfected with the NF-κB reporter and treated with 10 μM SHetA2 for the indicated times. Cell lysates were prepared and evaluated for luciferase activity which was normalized for protein concentration.
Because both TP and TSP4 have DNA binding sites for the NFκB transcription factor in their promoter, the ability of SHetA2 to inhibit activity of NF-κB in ovarian cancer cultures was tested using a luciferase reporter plasmid driven by NF-κB sites in the promoter. […] Inhibition increased over the 4 hour evaluation time (FIG. 15).

[2] = system: C6 glioma; assay: Rat glioma (brain cancer) model, MRI; type: in vivo; details: oral 60 mg/kg/day; vs untreated control
Experimental: FIG. 9. SHetA2 inhibition of Angiogenesis. C6 glioma cells were injected into the brains of 2 rats. One week later, one rat was gavaged with 60 mg/kg/day SHetA2 on each Monday, Wednesday and Friday. Blood vessels were imaged by MRI.
FIG. 10. […] C6 glioma cells were injected into the brains of 2 rats. One week later, one rat was gavaged with 60 mg/kg/day SHetA2 on each Monday, Wednesday and Friday. The blood flow was measured by MRI imaging.
FIG. 11. SHetA2 inhibition of glioma tumor growth. C6 glioma cells were injected into the brains of 2 rats. One week later, one rat was gavaged with 60 mg/kg/day SHetA2 on each Monday, Wednesday and Friday. The tumor size was measured by MRI imaging.
In this in vivo model, glioma cells are injected into the brains of rats and the growth of the tumor and development of blood vessels in the tumor is measured by magnetic resonance imaging (MRI).

[3] = system: OVCAR-3 xenograft tumors; assay: Histochemical and immunohistochemical evaluation of xenograft tumors (glands, MUC-1, TUNEL); type: in vivo, mouse; details: 10 mg/kg/day gavage, end of treatment
Experimental: Statistically significant higher levels of glands and MUC-1 expression in the tumors of treated animals in comparison to controls treated with sesame oil are indicated by asterisks (*) and were determined by t-tests. For gland formation, p<0.001 for SHetA2, p=0.097 for SHetA4, p=0.001 for SHet50, and p=0.007 for 4-HPR. For MUC-1 scores, p=0.011 for SHetA2, p=0.050 for SHetA4, p=0.040 for SHet50, and p=0.001 for 4-HPR. The higher levels of TUNEL scores in the tumors of treated animals in comparison to control animals approached significance (t-test, p=0.27 for SHetA2, p=0.48 for SHetA4, p=0.20 for SHet50, and p=0.12 for 4-HPR).
On the last day of treatment, the animals were sacrificed and then the tumors were removed, fixed in neutral buffered formalin and embedded in paraffin. […] MUC-1 expression was detected in tumor sections using a mouse monoclonal antibody to human MUC-1 (Pharmingen, San Diego, Calif.) and the Histostain-Plus AEC Kit (Zymed Laboratories, San Francisco, Calif.) according to manufacturers instructions. […] Tumor sections were scored for number of glands (quantified in one H&E stained sections and 3 MUC-1-stained sections) and MUC-1 and TUNEL staining (based on staining intensity and percent positive cells). […]

[4] = system: EAhy.926 endothelial cells; assay: Growth/viability of endothelial cells versus ovarian cancer cell lines; type: cell-based; details: 24 hours
Experimental: (§1) The graph on the left provides quantification of the endothelial branches for each treatment dose.
(§2) The increased thickness of the vessels at 1 μM and the increasing proportions of solitary clumps of cells at 5 and 10 μM indicate that SHetA2 is inhibiting endothelial cell migration. To determine if this anti-angiogenic activity was due to growth inhibition or cytotoxicity. The viability of the endothelial cells treated with SHetA2 for 24 hours was evaluated. […] This confirms the therapeutic ratio observed in previous studies.

[5] = system: dorsal skin; assay: Topical irritancy in Skh hairless mice; type: in vivo; details: topical, dorsal skin, 4 days, 2-log dose range
Experimental: Female Skh hairless mice, 6-8 weeks old, were treated topically on the dorsal skin for 4 days over a 2-log concentration dose range with various compounds. Retinoic acid receptor-Hets were evaluated in A, while retinoic acid receptor-independent Flex-Hets were evaluated in B. Daily flaking and abrasion scores were combined to calculate a single cutaneous toxicity score for each mouse. Each treatment group consisted of 4 mice, and group averages were used to plot cutaneous toxicity against doses of the compounds.
Topical irritancy was evaluated according to published procedures (29). Briefly, female Skh hairless mice, 6-8 weeks old, were treated topically on the dorsal skin for 4 days over a 2-log concentration dose range with various compounds. Daily flaking and abrasion scores were combined to calculate a single cutaneous toxicity score for each mouse. Each treatment group consists of 4 mice, and group averages are used to plot cutaneous toxicity against dose of the retinoid compound.

[6] = system: EAhy.926 endothelial cells; assay: Endothelial tube branching on matrigel; type: cell-based; details: 1, 5 and 10 μM; 20 hours
Experimental: as §1, §2

[7] = system: A2780 ovarian xenograft tumors; assay: A2780 ovarian xenograft tumor model; type: in vivo, mouse; details: ovarian cancer model
Experimental: FIG. 12. Various Xenograft tumors stained with CD34 antibodies (brown) to identify endothelium. The B16 mouse melanoma cell line was established as a syngeneic tumor in an immunocompetent mouse model and the human Caki renal cancer and A2780 ovarian xenograft tumors in immunocompromised mice. The treated mice were gavaged with 60 mg/kg/day SHetA2 and the untreated were gavaged with solvent only. The tumors were excised and sections were stained with the anti-CD34 antibody to detect endothelial cells (brown stain).
Survival was the primary endpoint of those studies. […] Tumor growth was the primary endpoint of the renal cancer study.

CC1(C)CC(C)(C)c2cc(NC(=S)Nc3ccc([N+](=O)[O-])cc3)ccc2S1 [SHetA2]
Time to inhibition of NF-κB activity [1]: ≤ 30 min
Angiogenesis of glioma tumors (MRI) [2]: inhibited the angiogenesis
Growth of glioma tumors (MRI) [2]: inhibited the angiogenesis and growth of the tumors
MUC-1 expression in xenograft tumors ([3]; vs control): increase staining
Gland formation in xenograft tumors ([3]; vs untreated control): greatest degree of gland induction
Growth inhibition of endothelial cells compared with A2780 and OVCAR-3 [4]: much less growth inhibited
Topical irritancy (cutaneous toxicity score) [5]: did not induce topical irritancy
Inhibition of angiogenesis: endothelial tube branching [6]: dose-responsive inhibition
Survival [7]: improved survival
